US8273372B2, “Extracellular matrix composition” (Restoration of Appearance & Function Trust, priority 2006, dated 2012)
pEC50: −log10 of the molar value. Like-named read-outs stand apart in the source and are kept apart here.

How the values were obtained:
[1] = tested on: human dermal fibroblast cultures; assay: Toxicity assay, MTS/PMS assay of cell viability; format: cell-based
Protocol: Culture medium was aspirated from confluent culture and washed with versene. […] Trypsin was neutralised with an equal volume of growth medium, the cell suspension was transferred to a universal tube. The culture flask was washed with PBS and transferred to the universal tube. Centrifugation was performed at 200×g for 7 minutes. Cells were resuspended in 1-2 ml growth medium.
Cells were seeded (10^5/well) into 24-well plates in 0.5 ml DMEM growth medium/well and incubated at 37° C. in a humidified 5% CO2 incubator, until the cells adhered and spread, typically overnight. A single well blank/plate was retained for a reagent control.
Culture medium was aspirated from cultures and replaced with: a weighed sample of scaffold (20 mg/well) in fresh serum-free DMEM; serum-free DMEM with a range of dilutions of glutaraldehyde or EDC as cross-linking agents. Cells were incubated at 37° C. in humidified 5% CO2 for 1 hr.
The medium and scaffold material was removed from cells and replaced with fresh maintenance medium (DMEM with 2% HIFBS) and returned to the incubator for 2 to 22 hours. Direct toxicity measurements were taken at 2, 14 and 20 hours. For exposure to matrices, incubation was for 20 hrs. The same medium was added to an empty control well for a reagent blank.
Aliquots of MTS & PMS stock solutions were thawed and a working MTS/PMS reagent was prepared (2 ml MTS+100 μl PMS). MTS/PMS reagent was added to all wells (50 μl/well) and returned to the incubator for 2-4 hours, until colour developed in the medium over control cultures without toxic challenge.
100 μl aliquots of medium were transferred to a 96 well ELISA plate for spectrophotometric measurement at 495 nm.
Matrices of 1% fibrin/1% alginate, foamed & lyophilised, were cross-linked with EDC or glutaraldehyde and washed 5 times in glycine or PBS before a second lyophilisation, or not, as indicated. […] pieces of matrix were incubated in wells with confluent fibroblast cultures in serum-free medium for 1 hr to detect leachable toxicity, assessed after 20 hr to check for induction of delayed cell death.

neutrophil CD18 = assay: Human neutrophil activation assay (CD18, FACS); format: cell-based; conditions: 1 hour at 37° C., FIGS. 36 and 37, read-out: ED50 neutrophil CD18 activation
Protocol: Dextran 70 and ACD were warmed to 37° C. in a water bath. 2.5 ml ACD was drawn into a 20 ml syringe. 10-15 ml of blood was drawn from a volunteer into the same syringe and inverted several times to mix. The needle was changed and 6-7 ml of Dextran 70 was drawn. Some air was drawn into the top of the syringe and mixed thoroughly by inverting the syringe several times. The syringe was turned upright, taped to the inside of a 37° C. water bath and left for approximately 1.5 hours to allow for erythrocytes to sediment, leaving a leukocyte-rich plasma upper layer.
The syringe was carefully removed from the water bath keeping upright and the top of the needle was bent through about 120°. A 15 ml polypropylene tube was placed under the tip of the needle and approximately half of the plasma was slowly removed (containing the leukocytes). The remainder of the plasma was removed into a second tube leaving the red blood cells in the syringe to be discarded. Each of the 15 ml tubes was topped up with PBS/g and inverted to mix.
The tubes were centrifuged at 1000 rpm for 10 minutes. The supernatant was removed using a 1 ml plastic pipette and the pellet was loosened. If the supernatant appeared cloudy then a check was performed under the microscope for remaining cells and centrifuged again if necessary. When the supernatant was clear it was discarded. […]

human dermal fibroblasts [2] = assay: MTS assay, acute cytotoxicity; format: cell-based; conditions: FIGS. 30 and 31
Protocol: (§1) The MTS assay was used as described hereinbefore with certain modifications.
(§2) Firstly, two modalities were used, (i) acute cytotoxicity and (ii) effect on proliferation over 3 days.
(§3) On day −1, human dermal fibroblasts were seeded for (i) at high density (5×10^5/well) and for (ii) at low density (2.5×10^4/well).
(§4) On day 0, cultures were washed in PBS/g and exposed to the test agent diluted into PBS/g unless otherwise stated, for a test period (1-4 hr). Then the test agent was removed and culture medium replaced. For (i), cells were returned to maintenance medium (2% FBS/DMEM) followed by MTS/PMS reagent for two hours. For (ii), cells were returned to growth medium (10% FBS/DMEC) for three days. After this period, the growth medium was aspirated and replaced with maintenance medium (2% FBS/DMEM) followed by MTS/PMS reagent for two hours.
(§5) MTS colour change at 2 hours was measured as described hereinbefore.
(§6) Test agents were GTA and soaked scaffold supernatants (a), fibrinogen and fragment E Schiff base hydrolysate (b) and (c) and alginate (d).

human dermal fibroblasts [3] = assay: MTS assay, effect on proliferation over 3 days; format: cell-based; conditions: FIGS. 30 and 31
Protocol: as §1, §2, §3, §4, §5, §6

HPMEC = assay: Cell adhesion assay on cross-linked matrix protein coatings (crystal violet); format: cell-based, human; conditions: coating cross-linked with glutaraldehyde or EDC dilution range, 1 hr adhesion; FIG. 5
Protocol: HPMEC were isolated from human placentae obtained with consent and cultured according to previously published methods (Leach et al. (1994) Placenta 15(4): 355-64; Dye et al. (2001) Microvasc Res 62(2): 94-113; Dye et al. (2004) Faseb J 18(1): 125-7). Established cultures are phenotypically stable for typically up to 25 passages at a split ratio of 1:3. Cultures are maintained in standard growth medium (M199+5% PDPDS+2% HIFBS). Cultures were maintained in a humidified 5% CO2 and 37° C. atmosphere. For biocompatibility assessment of scaffolds, harvested cells were resuspended in high growth medium (M199+5% HIBFS). For cell adhesion assays harvested cells were resuspended in M199+0.5% BSA. […]
The well was washed with a sufficient number of washes to reduce residual concentration to below cytotoxic limits (5×100 μl per well) with PBS, replaced with 50 μl/well BSA/NaHCO3 (covalent reagent blocking step) and incubated for 1 hr at 37° C. Washing was performed twice with sterile PBS and the plate was stored with 100 μl/well PBS until the cells were ready.
Accutase was thawed and M199/BSA was prepared. […] The supernatant was aspirated and the cells were resuspended in 1-2 ml M199/BSA as appropriate, titurated, and cell density was counted (1:10 in 4% trypan blue/PBS), aiming for around 2×10^6/ml.
The number of cells required for the assay was calculated using 1-2×10^4 cells/well. […]

## CCN=C=NCCCN(C)C.Cl [EDC, 1-(3-Dimethylamino-propyl)-3-ethyl-carbodiimide (EDC) HCl]
[1]
  LD50 for cells relative to the lowest cross-linking concentration used: 5,000-10,000 times less
[1]; 1 hr exposure, measured at 2, 14 and 20 hours, FIGS. 6-7
  toxicity (loss of cell viability): acute concentration-dependent toxicity

## O=CCCCC=O [glutaraldehyde]
Neutrophil CD18
  pEC50: 3.30 to 3.82
[1]
  LD50 for cells relative to the lowest cross-linking concentration used: 5-10 times less
  toxicity (loss of cell viability): acute concentration-dependent toxicity
Human dermal fibroblasts [2]
  acute LD50 on HDF cytotoxicity: 50 to 150 µM
Human dermal fibroblasts [3]
  LD50 for proliferation: around 7 μM

## collagen
HPMEC
  effect of cross-linking on cell adhesion: biphasic effect

## fibrinogen
HPMEC
  effect of cross-linking on cell adhesion: continuously increases adhesion
